Data set [1] is classed as in vitro ADME. The conditions noted are these: 100 µM, 25% human serum, 3 h, 37 °C. The protocol:
Similiarly, 9 was diluted to 100 µM in BHI that was inoculated with E. faecalis ATCC 29212 before incubating at 37 °C for 20 h. The overnight culture was flash frozen and lyophilized. The lyophilized samples were extracted with a volume of 90% methanol/10% water that was equal to the volume of the sample prior to lyophilization. The extract was assumed to have a concentration of 100 µM. […]
Human Serum + 9 Human Serum
Log(Concentration (µM)) Log(Concentration(µM))
Supplementary Figure 19. The stability of inhibitor 9 in the pres ence of human serum or C+ E. faecalis. A ) C y l A i nhibition activity of an extract of human s erum treated with 9 (100 μM) for 3 h at 37 ̊C. The resulting solution was used to determine the remaining activity of the inhibitor in a […]
CylA activity assay. […] This experiment was perform ed on three different samples of inhibitor (n = 3). B) CylA inhibition activity of an extract of E. faecalis that was treated with 9 (100 μM) for 20 h at 37 ̊C (+9 +E. faecalis). The resulting solution was used to determine the remaining activity of the inhibitor in a CylA activity assay. An IC50 equal to 36 ± 3 nM was determin ed. Thes e values are higher than the IC50 for a fresh batch of […]
(also on this page, place not known: determined. inhibition CylA These IC 50 presence serum This performed A) Non-linear fitting v i/vo IC 50. […]

The test system of data set [2] is C+ E. faecalis (FA2-2 (pAM714), ATCC 29212). In words: Solution-phase hemolysis assay with C+ E. faecalis and rabbit erythrocytes. Format: cell-based, Enterococcus faecalis. The source says:
To test this hypothesis, a solution-phase hemolysis assay was developed, and this assay was used to monitor the effect of 9 on the hemolytic activity of several strains of E. faecalis (Fig. 8A). The cytolysin BGC is part of conjugative plasmid pAD1[64]. E. faecalis FA2-2 (-pAD1) lacks pAD1 and E. faecalis FA2-2 (pAM9055) is defective in cylA[27],[64]. Consistent with previous findings, both strains were not hemolytic (Fig. 8A).
A Treatment of an inoculum (OD600 = 0.35) of washed E. faecalis cells with 100 μM inhibitor 9 ( + 9), in the presence of washed rabbit erythrocytes. The hemolytic activity decreased relative to untreated controls (− 9). In total, four biological replicates (n = 4) for each condition were performed. Error bars represent the standard deviation and are centered at the mean. B Assessment of the ability of inhibitor 9 to block the hemolytic activity of live E. faecalis over a range of inhibitor concentrations under conditions described for (A). […] Errors in the EC50 are the errors calculated during the non-linear concatenate fit. C LCMS analysis of the concentration of CylLS” extracted from overnight cultures of C+ E. faecalis ATCC 29212 treated with 9 or vehicle. CylLS” extract concentrations were determined by comparison to an internal standard of ^15N,^13C-labeled CylLS”. Four biological replicates were performed (n = 4). Errors bars are centered at the mean and represent the standard of deviation. […] Four biological replicates were performed (n = 4). Error bars are centered at the mean and represent the standard of deviation. Statistical significance was calculated using a two sample and two sided t test for (A) and (C) and a one sample one sided t test for (D). **P < 0.01, ***P < 0.001. Source data are provided as a Source Data file.
Rabbit erythrocytes (Hemostat) were washed with cold, sterile PBS and diluted in BHI to a concentration of 1% v/v. A 3 mL overnight culture of E. faecalis was centrifuged (4000 × g, 10 min) and the pellet was resuspended in 7 mL of BHI and the suspension was centrifuged (4000 × g, 10 min). The pellet was resuspended in BHI to achieve an OD600 of 1.4 and 50 µL of this suspension was added to a well containing 50 µL of inhibitor (400 µM). The inhibitor and the E. faecalis were incubated at room temperature for 10 min before adding 100 µL of 1% v/v rabbit erythrocytes in BHI. The inhibitor-free control well contained the same concentration of bacteria and rabbit erythrocytes. The sterile negative control and sterile positive control contained 100 µL of BHI and 100 µL of 1% v/v rabbit erythrocytes. […] The plate was then placed on ice and centrifuged at 1000 × g for 10 min to pellet all the remaining cellular material. The supernatant was diluted 10-fold in PBS and the absorbance at 415 nm was measured. For each condition, four wells were prepared and analyzed.

SMILES strings stand for the structures. Where “and” joins values, the source holds several entries; their conditions need not be identical. Equal entries are not always repeated. Non-standard residues stand in square brackets, D forms with d. Residues, ends and D or L forms follow the SMILES beside them. *: point of attachment. boroGlu = O=C(O)CC[C@H](N*)B(O)O; Gly(cPr) = N[C@H](C(=O)O)C1CC1

As for `CC(=O)NCC(=O)N[C@@H](CC(=O)O)C(=O)N[C@H](C(=O)N[C@@H](CCC(N)=O)C(=O)N[C@@H](C)C(=O)N[C@@H](CCC(=O)O)B(O)O)C1CC1` [Compound 9] (Ac-GD[Gly(cPr)]QA-boroGlu), the “stability in human serum” value in data set [1] was “relatively good stability”. For the same molecule, the “hemolysis, absorbance at 415 nm (Figure 8A), replicates” value in data set [2] (ATCC29212 +9, 100 μM) is 0.1606 and 0.1785 and 0.1723 and 0.2311; in data set [2] (pAM714 +9, 100 μM) it was 0.2309 and 0.2273 and 0.2512 and 0.1929. Further, the “hemolysis relative to untreated cells” value in data set [2] (C+ E. faecalis ATCC 29212, 100 μM, rabbit erythrocytes) is listed as “significantly reduced”. For the same molecule, the “hemolytic activity relative to untreated cells” value in data set [2] (E. faecalis FA2-2 (pAM714), 100 μM, rabbit erythrocytes) is given as “significantly reduced”. The “OD 415 nm (Figure 8B), trials 1 and 2” value was 0.3132 and 0.3077 in data set [2] (log(concentration of Inhibitor 9 (uM)) 1); 0.3207 and 0.274 in data set [2] (log(concentration of Inhibitor 9 (uM)) 1.39794); 0.2734 and 0.2373 in data set [2] (log(concentration of Inhibitor 9 (uM)) 1.69897); 0.2493 and 0.2138 in data set [2] (log(concentration of Inhibitor 9 (uM)) 1.87506); 0.2161 and 0.1917 in data set [2] (log(concentration of Inhibitor 9 (uM)) 2); 0.2085 and 0.1864 in data set [2] (log(concentration of Inhibitor 9 (uM)) 2.09691). Also, the “OD 415 nm (Figure 8B), trials 1 and 2” value is 0.1972 and 0.1808 in data set [2] (log(concentration of Inhibitor 9 (uM)) 2.17609); 0.2237 and 0.2008 in data set [2] (log(concentration of Inhibitor 9 (uM)) 2.30103).

These data come from PMC12304293, “Combatting virulent gut bacteria by inhibiting the biosynthesis of a two-component lanthipeptide toxin” (Nature Communications, 2025).
